The numbers were not newly measured in patent US20100008866A1, “CIS-CYCLOHEXYL SUBSTITUTED PYRIMIDINONE DERIVATIVES” (Neurogen Corporation, priority 2006, published 2010), which cites them from elsewhere.

In the series the target is VR (Homo sapiens, UniProt Q8NER1). Conditions: typically; no more than moderate affinity; read-out: Ki value (binds to VR).
Chain of VR (Q8NER1 whole entry): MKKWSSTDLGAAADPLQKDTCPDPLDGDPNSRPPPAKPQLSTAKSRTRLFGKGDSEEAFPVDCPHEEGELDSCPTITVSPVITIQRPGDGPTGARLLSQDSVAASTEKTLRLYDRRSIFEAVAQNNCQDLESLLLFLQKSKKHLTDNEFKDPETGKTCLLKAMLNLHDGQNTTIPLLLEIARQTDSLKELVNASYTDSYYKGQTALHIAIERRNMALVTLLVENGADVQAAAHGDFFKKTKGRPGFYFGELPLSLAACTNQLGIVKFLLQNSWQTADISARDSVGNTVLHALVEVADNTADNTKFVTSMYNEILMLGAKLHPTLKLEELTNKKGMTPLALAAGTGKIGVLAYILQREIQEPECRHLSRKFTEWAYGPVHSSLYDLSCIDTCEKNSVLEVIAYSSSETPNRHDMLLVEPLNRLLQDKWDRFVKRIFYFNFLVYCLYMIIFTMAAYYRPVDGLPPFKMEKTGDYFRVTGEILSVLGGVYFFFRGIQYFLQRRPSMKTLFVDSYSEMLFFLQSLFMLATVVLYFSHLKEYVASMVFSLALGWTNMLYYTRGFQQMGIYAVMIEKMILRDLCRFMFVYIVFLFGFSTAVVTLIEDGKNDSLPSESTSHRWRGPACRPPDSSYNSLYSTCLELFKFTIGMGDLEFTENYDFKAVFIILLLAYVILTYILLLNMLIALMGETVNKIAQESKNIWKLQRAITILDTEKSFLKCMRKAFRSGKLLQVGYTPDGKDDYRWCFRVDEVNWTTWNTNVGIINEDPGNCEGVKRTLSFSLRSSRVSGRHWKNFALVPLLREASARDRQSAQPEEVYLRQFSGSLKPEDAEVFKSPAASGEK

With `Cl.Cl.Cl.Cl.Cl.Cl.N.N.N.N.N.N.N.N.N.N.N.N.N.N.[O-2].[O-2].[Ru+3].[Ru+3].[Ru+4]` [ruthenium red], the Ki was at least 140 µM.
